20 compounds from patent US11040981B2, “Pyrrolotriazine compounds and methods of inhibiting TAM kinases” (Syros Pharmaceuticals, Inc., priority 2017, dated 2021) can be followed below.

For one experiment, the target named is T1, MERTK (Homo sapiens, UniProt Q12866).
T1 sequence (Q12866 21-999): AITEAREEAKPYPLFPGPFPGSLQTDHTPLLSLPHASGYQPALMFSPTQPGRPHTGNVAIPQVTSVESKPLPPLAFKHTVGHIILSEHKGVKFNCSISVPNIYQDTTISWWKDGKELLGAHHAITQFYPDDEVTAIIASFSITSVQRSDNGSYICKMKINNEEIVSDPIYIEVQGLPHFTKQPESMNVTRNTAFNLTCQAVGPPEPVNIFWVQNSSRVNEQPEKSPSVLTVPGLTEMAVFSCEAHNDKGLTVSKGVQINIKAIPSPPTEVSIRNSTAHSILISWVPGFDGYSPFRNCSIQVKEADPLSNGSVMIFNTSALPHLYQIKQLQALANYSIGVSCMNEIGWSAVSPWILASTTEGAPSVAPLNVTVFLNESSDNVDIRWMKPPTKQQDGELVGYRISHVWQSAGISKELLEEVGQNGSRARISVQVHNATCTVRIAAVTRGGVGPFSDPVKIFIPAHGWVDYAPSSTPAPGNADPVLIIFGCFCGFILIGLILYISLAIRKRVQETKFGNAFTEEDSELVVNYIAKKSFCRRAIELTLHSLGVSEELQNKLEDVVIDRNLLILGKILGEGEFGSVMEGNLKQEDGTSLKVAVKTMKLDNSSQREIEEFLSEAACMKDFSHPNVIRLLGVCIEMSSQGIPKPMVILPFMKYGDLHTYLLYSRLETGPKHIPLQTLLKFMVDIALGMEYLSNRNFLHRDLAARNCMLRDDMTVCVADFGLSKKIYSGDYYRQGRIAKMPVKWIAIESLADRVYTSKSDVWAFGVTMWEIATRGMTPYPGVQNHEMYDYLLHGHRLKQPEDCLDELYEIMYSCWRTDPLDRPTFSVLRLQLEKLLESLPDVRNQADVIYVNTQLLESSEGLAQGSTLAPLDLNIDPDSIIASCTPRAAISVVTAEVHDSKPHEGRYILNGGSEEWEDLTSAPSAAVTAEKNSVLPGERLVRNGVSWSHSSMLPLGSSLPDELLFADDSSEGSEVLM
Kind of experiment: TR-FRET kinase activity assay, MERTK. It is filed as biochemical. The conditions noted are these: for IC50: TR-FRET activity assay, ATP at Km, 60 minutes, read-out: Mer IC50; for FLT3/Mer ratio (FLT3 IC50/Mer IC50): ratio of Mer to FLT3: FLT3 IC50/Mer IC50. Here is the method: (§1) IC50 values for compound inhibition of AXL, FLT3, MERTK and TYRO3 activity were determined by using a TR-FRET activity assay. A polypeptide substrate with a fluorescent label is phosphorylated on a tyrosine by each enzyme, where the now phosphorylated product is bound by a Europium-labeled antibody specific to that phosphorylation site. The proximity between the antibody and the substrate gives a signal known as TR-FRET. As the enzyme is inhibited by compound, less phosphorylated peptide product is made causing a decrease in overall signal.
(§2) Activity assays were performed in a 384-well, small volume, black microplates in an active enzyme volume of 10 μL and final developed volume of 20 μL. Final assay conditions are 50 mM HEPES pH 7.5, 10 mM MgCl2, 1 mM EGTA, 0.01% Brij 35 and 1 mM DTT all at RT. Enzyme, substrate labeled peptide and compound are mixed, and then the reaction is initiated with the addition of ATP at Km concentration for each enzyme. The reaction is allowed to run 60 minutes and then quenched with a 12.5 mM EDTA (ethylenediamine tetraacetic acid) solution. The plate is then developed with the addition of Europium labeled antibody for a final volume of 20 μL and is then incubated for 30 minutes in darkness. Plates are read in a Pherastar plate reader. Data is analyzed in GraphPad PRISM.
(§3) The results of these assays are shown in Table 1, below, wherein “No.” designates compound number (FIG. 1); “A” represents a value of ≤100 nM; “B” a value of >100 nM and ≤1 μM; “C” a value of >1 μM and ≤10 μM; “D” a value of >10 μM; “ND” is not determined. The ratio of Mer to FLT3 is calculated as follows: FLT3 IC50/Mer IC50. “+” represents a ratio of >2.0 and <10; “++” represents a ratio of between 10 and 100; and “+++” represents a ratio of >100.
(In general: Time-resolved FRET reads energy transfer from a long-lived donor to a nearby acceptor.)

A further experiment has as its target T2, FLT3 (Homo sapiens, UniProt P36888).
T2 sequence (P36888 27-993): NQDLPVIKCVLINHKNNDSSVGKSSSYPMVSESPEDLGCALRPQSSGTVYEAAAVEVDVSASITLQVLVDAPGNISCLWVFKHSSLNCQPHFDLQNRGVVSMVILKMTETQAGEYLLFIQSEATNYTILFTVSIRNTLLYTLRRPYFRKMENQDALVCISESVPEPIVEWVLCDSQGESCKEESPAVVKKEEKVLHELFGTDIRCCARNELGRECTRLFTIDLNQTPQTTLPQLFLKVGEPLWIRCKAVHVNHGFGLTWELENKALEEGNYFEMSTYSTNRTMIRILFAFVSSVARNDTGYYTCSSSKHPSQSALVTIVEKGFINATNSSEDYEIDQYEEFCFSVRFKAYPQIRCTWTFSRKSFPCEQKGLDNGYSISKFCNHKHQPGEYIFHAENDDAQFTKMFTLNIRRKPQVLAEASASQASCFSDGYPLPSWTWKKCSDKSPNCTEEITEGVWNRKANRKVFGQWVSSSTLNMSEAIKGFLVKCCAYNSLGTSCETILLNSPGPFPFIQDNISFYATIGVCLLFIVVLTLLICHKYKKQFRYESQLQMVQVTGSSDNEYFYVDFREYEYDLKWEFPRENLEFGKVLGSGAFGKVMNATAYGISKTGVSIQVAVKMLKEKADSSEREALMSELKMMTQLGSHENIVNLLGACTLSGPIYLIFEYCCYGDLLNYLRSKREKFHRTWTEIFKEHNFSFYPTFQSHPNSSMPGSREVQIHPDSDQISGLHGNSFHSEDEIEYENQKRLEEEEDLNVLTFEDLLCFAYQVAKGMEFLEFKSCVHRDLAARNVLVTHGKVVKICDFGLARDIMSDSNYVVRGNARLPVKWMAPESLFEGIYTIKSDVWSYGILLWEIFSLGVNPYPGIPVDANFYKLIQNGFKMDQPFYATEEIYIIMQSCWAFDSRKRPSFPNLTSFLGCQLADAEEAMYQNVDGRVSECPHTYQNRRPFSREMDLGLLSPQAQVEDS
Description: TR-FRET kinase activity assay, FLT3. The note with it: ATP at Km, 60 minutes. It is filed as biochemical. On the procedure: as §1, §2, §3

A word on the IC50: it is the concentration needed to halve the response being measured.

For the compound `COC[C@H](C)Nc1ncc2c(-c3cnn(CC(=O)N4CCN(C)CC4)c3)cc([C@H]3CC[C@H](O)CC3)n2n1` [Compound 240], the IC50 on MERTK is at most 100 nM; at FLT3, 100 to 1000 nM. At MERTK, the “FLT3/Mer ratio (FLT3 IC50/Mer IC50)” value was “+++ (“+++” represents a ratio of >100)”.
As for `COC[C@H](C)Nc1ncc2c(-c3ccc(C)cn3)cc([C@H]3CC[C@H](O)CC3)n2n1` [Compound 258], on MERTK, the IC50 is at most 100 nM; the “FLT3/Mer ratio (FLT3 IC50/Mer IC50)” value is “++ (“++” represents a ratio of between 10 and 100)”. The same compound yielded an IC50 on FLT3 of 1000 to 10000 nM.
Consider `COC[C@H](C)Nc1ncc2c(-c3cnn(CC(=O)NC(C)C)c3)cc([C@H]3CC[C@H](O)CC3)n2n1` [Compound 235], for which, at MERTK, the IC50 is at most 100 nM and the “FLT3/Mer ratio (FLT3 IC50/Mer IC50)” value is recorded as “+++ (“+++” represents a ratio of >100)”. Moreover, on FLT3, the IC50 was 1000 to 10000 nM.
The corresponding values for `COC[C@H](C)Nc1ncc2c(-c3cnn(CC(=O)N4CCCC4)c3)cc([C@H]3CC[C@H](O)CC3)n2n1` [Compound 239] are at most 100 nM, “+++ (“+++” represents a ratio of >100)” and 100 to 1000 nM.
Regarding `COC[C@H](C)Nc1ncc2c(-c3cncc(S(C)(=O)=O)c3)cc([C@H]3CC[C@H](O)CC3)n2n1` [Compound 194], the IC50 on MERTK was at most 100 nM; on FLT3, 1000 to 10000 nM. Besides, the “FLT3/Mer ratio (FLT3 IC50/Mer IC50)” value on MERTK is listed as “+++ (“+++” represents a ratio of >100)”.
With `COCC(C)Nc1ncc2c(-c3cccc(CN4CCC(F)C4)c3)cc(C3CCC(O)CC3)n2n1` (stereo not drawn) [Compound 225], the IC50 was at most 100 nM at MERTK and 100 to 1000 nM against FLT3. For the same compound, the “FLT3/Mer ratio (FLT3 IC50/Mer IC50)” value on MERTK was “+++ (“+++” represents a ratio of >100)”.
For `COC[C@H](C)Nc1ncc2c(-c3ccc(C(=O)N4CCN(C)CC4)nc3)cc([C@H]3CC[C@H](O)CC3)n2n1` [Compound 226] the same measures were at most 100 nM, 100 to 1000 nM and “+++ (“+++” represents a ratio of >100)”.
For `C[C@H](Nc1ncc2c(-c3ccc(CN4CCOCC4)cc3)cc([C@H]3CC[C@H](O)CC3)n2n1)[C@@H]1CCCO1` [Compound 205] the same measures were at most 100 nM, 1000 to 10000 nM and “+++ (“+++” represents a ratio of >100)”.
In the case of `COC[C@H](C)Nc1ncc2c(-c3ccc4c(c3)CC(=O)N4)cc([C@H]3CC[C@H](O)CC3)n2n1` [Compound 251], at MERTK, the IC50 is at most 100 nM and the “FLT3/Mer ratio (FLT3 IC50/Mer IC50)” value is on record as “+++ (“+++” represents a ratio of >100)”. Besides, on FLT3, the IC50 is 100 to 1000 nM.
As to `CC(C)OC[C@H](C)Nc1ncc2c(-c3ccc(CN4CCOCC4)cc3)cc([C@H]3CC[C@H](O)CC3)n2n1` [Compound 214], at MERTK, the IC50 is at most 100 nM and the “FLT3/Mer ratio (FLT3 IC50/Mer IC50)” value is on record as “+++ (“+++” represents a ratio of >100)”. On FLT3, this compound gave an IC50 of 1000 to 10000 nM.
Turning to `COC[C@H](C)Nc1ncc2c(-c3cnn([C@H]4CCOC4)c3)cc([C@H]3CC[C@H](O)CC3)n2n1` [Compound 243], the IC50 at MERTK is at most 100 nM; on FLT3, 100 to 1000 nM. Besides, on MERTK, the “FLT3/Mer ratio (FLT3 IC50/Mer IC50)” value is “+++ (“+++” represents a ratio of >100)”.
On to `COC[C@H](C)Nc1ncc2c(-c3ccc(C)nc3)cc([C@H]3CC[C@H](O)CC3)n2n1` [Compound 246], for which, on MERTK, the IC50 is at most 100 nM and the “FLT3/Mer ratio (FLT3 IC50/Mer IC50)” value is “+++ (“+++” represents a ratio of >100)”. Also, on FLT3, the IC50 fell in the range of 100 to 1000 nM.
For the compound `COC[C@H](C)Nc1ncc2c(-c3cncc(C#N)c3)cc([C@H]3CC[C@H](O)CC3)n2n1` [Compound 201], at MERTK, the IC50 is at most 100 nM and the “FLT3/Mer ratio (FLT3 IC50/Mer IC50)” value is reported as “+++ (“+++” represents a ratio of >100)”. At FLT3, this compound yielded an IC50 of 1000 to 10000 nM.
With `COC[C@H](C)Nc1ncc2c(-c3cccc4c3CNC4=O)cc([C@H]3CC[C@H](O)CC3)n2n1` [Compound 210], on MERTK, the IC50 was at most 100 nM and the “FLT3/Mer ratio (FLT3 IC50/Mer IC50)” value is “+++ (“+++” represents a ratio of >100)”. The IC50 on FLT3 was in the range of 1000 to 10000 nM.
For the compound `CC(Nc1ncc2c(-c3ccc(CN4CCOCC4)cc3)cc(C3CCC(O)CC3)n2n1)C(F)(F)F` (stereo not drawn) [Compound 202], the IC50 is at most 100 nM at MERTK and 100 to 1000 nM on FLT3. The “FLT3/Mer ratio (FLT3 IC50/Mer IC50)” value at MERTK was “+++ (“+++” represents a ratio of >100)”.
As for `COC[C@H](C)Nc1ncc2c(-c3ccc(N4CCN(C)CC4)nc3)cc([C@H]3CC[C@H](O)CC3)n2n1` [Compound 271], the IC50 at MERTK and on FLT3 was at most 100 nM in each case. Also, the “FLT3/Mer ratio (FLT3 IC50/Mer IC50)” value at MERTK was “++ (“++” represents a ratio of between 10 and 100)”.
Regarding `CC(CCF)Nc1ncc2c(-c3ccc(CN4CCOCC4)cc3)cc(C3CCC(O)CC3)n2n1` (stereo not drawn) [Compound 244], the IC50 at MERTK and on FLT3 was at most 100 nM in each case. Further, the “FLT3/Mer ratio (FLT3 IC50/Mer IC50)” value at MERTK is “++ (“++” represents a ratio of between 10 and 100)”.
As for `COC[C@H](C)Nc1ncc2c(-c3cnn(C(F)F)c3)cc([C@H]3CC[C@H](O)CC3)n2n1` [Compound 207], the IC50 at MERTK is at most 100 nM; against FLT3, 100 to 1000 nM. Moreover, on MERTK, the “FLT3/Mer ratio (FLT3 IC50/Mer IC50)” value is “+++ (“+++” represents a ratio of >100)”.
For the compound `COC[C@H](C)Nc1ncc2c(-c3cnn(CC(=O)N[C@H]4CCOC4)c3)cc([C@H]3CC[C@H](O)CC3)n2n1` [Compound 237], on MERTK, the IC50 is at most 100 nM and the “FLT3/Mer ratio (FLT3 IC50/Mer IC50)” value was “+++ (“+++” represents a ratio of >100)”. At FLT3, the IC50 lay in the range of 100 to 1000 nM.
For `COC[C@H](C)Nc1ncc2c(-c3ccc(CN4CCOCC4)nc3)cc([C@H]3CC[C@H](O)CC3)n2n1` [Compound 230] the same measures were at most 100 nM, “+++ (“+++” represents a ratio of >100)” and 100 to 1000 nM.
